The values below are quoted from earlier work in US20030096334A1, “Use of injectable dyes for staining an anterior lens capsule and vitreo-retinal interface” (priority 2001, published 2003).

The conditions of this series: descriptive term only.

As for `Cc1cc(-c2ccc(/N=N/c3ccc4c(S(=O)(=O)O)cc(S(=O)(=O)O)c(N)c4c3O)c(C)c2)ccc1/N=N/c1ccc2c(S(=O)(=O)O)cc(S(=O)(=O)O)c(N)c2c1O` [Evans Blue, Tetrasodium 6.6′-[3,3′-dimethylbiphenyl-4,4′-diylbis(azo)]bis[4-amino-t-hydroxynaphthalene-1,3-disulphonate]], the solubility in water result was “very soluble”.
